Experiment [1] has as its target T1, human full length PIK3KA Wild-type (p110α/p85α complex) (Homo sapiens, UniProt P42336).
T1 construct: Recombinant, catalytically active human full length PIK3KA Wild-type and H1047R mutant were purchased; 6xHis (N); purchased EMD Millipore Sigma 14-602M
Kind of experiment: PI3K-Alpha Kinase (PIK3CA) biochemical activity, wild-type (ADP-Glo). As to conditions: 20 uM ATP. The source says: (§1) PI3K-Alpha Kinase (PIK3CA) Activity, Wild-Type and H1047R Mutant and Determining IC50 Values for Inhibitors
(§2) Recombinant, catalytically active human full length PIK3KA Wild-type and H1047R mutant were purchased as 1:1 complex of N-terminal 6×his tagged p110α (catalytic) and untagged p85α, (regulatory subunit) from EMD Millipore Sigma (cat. no. 14-602M and 14-792M, respectively). PIP2diC8 (Avanti Polar Lipids Inc., cat. no. 850185) or Soy PI (Avanti Polar Lipids Inc., cat. No. 840044P) was used as lipid substrate. PIP2diC8 or PI lyophilized powder was dissolved in milliQ water to a concentration of 1 mM just before use. 10 mM stock compounds in DMSO were serially diluted 1:3 to generate a 10-point curve and plated using an acoustic liquid handler system (Echo 550 series instrument, Labcyte). A 10× intermediate compound plate (200 uM starting compound concentration and 10% DMSO) was prepared before starting the reaction. A typical reaction mixture (50 uL) comprised 40 mM HEPES buffer, pH 7.4, 25 mM MgCl2, 0.01% v/v triton-X-100, 1% v/v DMSO, 20 mM NaCl, 1-5 nM WT or H1047R PI3K protein, 20 uM ATP, and 50 uM PIP2diC8 or Soy PI. 1% DMSO buffer alone without test compound was employed as MAX control (full activity in the absence of any inhibitor), and no enzyme control was used to determine the level of background Adenosine 5′-diphosphate (ADP) (MIN control). First, Wild-type (WT) and H1047R mutant protein in kinase buffer with all components except ATP were incubated with or without compound at 27° C. for 1 h. After the pre-incubation, the reaction was initiated by the addition of […] (20 uM final concentration). The reaction was allowed to proceed until about 10% conversion of ATP (2 uM ADP) at 27° C. After that time, 5 uL of reaction was mixed with 5 uL of ADP-Kinase Glo Reagent (ADP-Glo Kinase assay kit, Promega cat. no. V9102) supplemented with MgCl2 10 mM to stop the reaction and deplete the remaining ATP for 40 min at room temperature. Then, 10 uL of Kinase Detection Reagent (ADP-Glo Kinase assay kit, Promega cat. no. V9102) was added to simultaneously convert ADP to ATP and allow the newly synthesized ATP to be measured using a luciferase/luciferin reaction. After 30 min at room temperature the light generated was measured using a luminometer (EnVision plate reader, Perkin Elmer). Process data through Genedata-Screener tool. Relative IC50 values are determined using luminescence units by calculating percent inhibition with respect to on-plate “MIN” and “MAX” controls. Data was analyzed using a 4-parameter nonlinear logistic equation (four-parameter logistic concentration-response curve):
(§3) Y=bot+[(top−bot)/1+(x/IC50)slope]
(§4) where Y=% inhibition, X=concentration yielding y % inhibition, Bottom=minimum value of y attained by curve, Top=maximum value of y attained by curve and Slope=steepness of curve at IC50.
(§5) % Inh=[(median Max−x/median Max−median Min)]·100
(§6) IC50: concentration of compound that reduces a given response (ligand binding, enzyme response) by 50%. IC50 relative: concentration giving half the compound's maximum response.
(§7) For IC50 values shown in Table A, “A” means IC50<0.5 μM; “B” means IC50 ranging between 0.5 μM and 1.0 μM; “C” means IC50 ranging between 1 μM and 5 μM; “D” means IC50 ranging between 5 μM and 10 μM; “E” means IC50>10 μM.

In experiment [2] the target is T2, human full length PIK3KA H1047R mutant (p110α/p85α complex) (Homo sapiens, UniProt P42336, H1047R).
T2 construct: Recombinant, catalytically active human full length PIK3KA Wild-type and H1047R mutant were purchased; 6xHis (N); purchased EMD Millipore Sigma 14-792M
T2 sequence (P42336 whole entry H1047R): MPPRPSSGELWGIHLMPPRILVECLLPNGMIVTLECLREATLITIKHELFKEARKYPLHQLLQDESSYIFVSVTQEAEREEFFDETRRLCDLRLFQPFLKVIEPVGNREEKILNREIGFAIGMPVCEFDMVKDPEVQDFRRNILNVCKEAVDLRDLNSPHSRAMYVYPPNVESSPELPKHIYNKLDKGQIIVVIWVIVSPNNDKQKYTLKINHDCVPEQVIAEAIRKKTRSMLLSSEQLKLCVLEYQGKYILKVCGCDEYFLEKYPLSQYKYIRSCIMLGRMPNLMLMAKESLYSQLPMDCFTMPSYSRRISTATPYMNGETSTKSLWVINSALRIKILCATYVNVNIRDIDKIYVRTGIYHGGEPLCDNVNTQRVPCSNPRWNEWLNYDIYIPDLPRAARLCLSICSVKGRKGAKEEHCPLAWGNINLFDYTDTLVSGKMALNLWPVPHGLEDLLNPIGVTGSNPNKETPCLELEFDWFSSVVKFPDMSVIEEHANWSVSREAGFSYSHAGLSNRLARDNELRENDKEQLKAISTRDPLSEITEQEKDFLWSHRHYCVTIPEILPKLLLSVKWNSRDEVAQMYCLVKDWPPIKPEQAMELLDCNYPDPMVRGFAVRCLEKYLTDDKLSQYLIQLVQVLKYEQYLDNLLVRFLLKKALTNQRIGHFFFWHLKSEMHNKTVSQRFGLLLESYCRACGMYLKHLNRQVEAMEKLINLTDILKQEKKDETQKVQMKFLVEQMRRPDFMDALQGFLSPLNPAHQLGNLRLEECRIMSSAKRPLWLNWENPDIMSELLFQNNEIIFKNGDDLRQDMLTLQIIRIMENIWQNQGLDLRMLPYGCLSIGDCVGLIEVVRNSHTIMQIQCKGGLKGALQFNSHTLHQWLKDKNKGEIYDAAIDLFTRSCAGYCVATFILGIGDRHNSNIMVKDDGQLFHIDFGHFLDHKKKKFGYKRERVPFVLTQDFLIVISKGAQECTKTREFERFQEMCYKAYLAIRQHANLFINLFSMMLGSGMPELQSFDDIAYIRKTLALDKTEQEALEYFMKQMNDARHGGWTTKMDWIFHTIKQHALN
T2 sequence (P27986 whole entry partner): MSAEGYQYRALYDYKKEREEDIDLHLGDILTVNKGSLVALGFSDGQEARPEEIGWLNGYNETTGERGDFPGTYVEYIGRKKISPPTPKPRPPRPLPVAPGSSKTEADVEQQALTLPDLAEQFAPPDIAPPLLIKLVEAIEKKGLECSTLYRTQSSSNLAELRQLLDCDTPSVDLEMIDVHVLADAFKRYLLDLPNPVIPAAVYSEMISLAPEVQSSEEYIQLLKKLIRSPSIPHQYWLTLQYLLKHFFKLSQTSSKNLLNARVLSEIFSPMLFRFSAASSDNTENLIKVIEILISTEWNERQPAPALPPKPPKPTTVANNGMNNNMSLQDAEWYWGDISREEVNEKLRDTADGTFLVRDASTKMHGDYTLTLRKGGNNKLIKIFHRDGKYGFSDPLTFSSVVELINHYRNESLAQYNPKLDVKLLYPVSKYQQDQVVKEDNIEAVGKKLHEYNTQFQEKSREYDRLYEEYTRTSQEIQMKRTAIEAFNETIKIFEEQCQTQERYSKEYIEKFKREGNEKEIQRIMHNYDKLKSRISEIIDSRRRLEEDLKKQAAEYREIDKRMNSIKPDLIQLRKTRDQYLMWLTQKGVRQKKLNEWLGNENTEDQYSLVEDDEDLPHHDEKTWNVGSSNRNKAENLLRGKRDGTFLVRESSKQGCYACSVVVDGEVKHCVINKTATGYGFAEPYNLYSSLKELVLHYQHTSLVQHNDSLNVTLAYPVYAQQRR
Nature of the experiment: PI3K-Alpha Kinase (PIK3CA) biochemical activity, H1047R mutant (ADP-Glo). To be noted: 20 uM ATP.
Source text: as §1, §2, §3, §4, §5, §6, §7
(In ADP-Glo the light output rises with the ADP produced.)

Some results are limits rather than exact numbers.

The IC50 is the concentration needed to halve the response being measured. Higher therefore signals a need for much substance.

`Cc1cc(C(C)Nc2ccc(F)c(F)c2C(=O)O)c2oc(-c3cnn(-c4ccc(C#N)cc4)c3)cc(=O)c2c1` (single isomer, unassigned) [Example 95, 2,3-Difluoro-6-[1-[2-[1-(4-cyanophenyl)pyrazol-4-yl]-6-methyl-4-oxo-chromen-8-yl]ethylamino]benzoic acid, Isomer 1,2,2,2-trifluoroacetic acid]: the IC50 is over 10000 nM in experiment [1] (Soy PI lipid substrate) and 1000 to 5000 nM in experiment [2] (Soy PI lipid substrate).

Consider `Cc1cc(C(C)Nc2ccccc2C(=O)O)c2oc(-c3cnn(-c4ccccn4)c3)cc(=O)c2c1` (single isomer, unassigned) [Example 108, 2-[1-[6-Methyl-4-oxo-2-[1-(2-pyridyl)pyrazol-4-yl]chromen-8-yl]ethylamino]benzoic acid, Isomer 2,2,2,2-trifluoroacetic acid], for which the IC50 in experiment [1] (Soy PI lipid substrate) is 1000 to 5000 nM; in experiment [2] (Soy PI lipid substrate), 500 to 1000 nM.

On to `Cc1cc(C(C)Nc2ccccc2C(=O)O)c2oc(-c3cnc(C)nc3)cc(=O)c2c1` (single isomer, unassigned; isomer 1) [Example 32, 2-[1-[6-Methyl-2-(2-methylpyrimidin-5-yl)-4-oxo-chromen-8-yl]ethylamino]benzoic acid, Isomer 1], for which the 50% inhibitory concentration (IC50) in experiment [1] (PIP2diC8 lipid substrate) is 5000 to 10000 nM; in experiment [2] (PIP2diC8 lipid substrate) it was under 500 nM.

Take `CC(Nc1ccc(Cl)nc1C(=O)O)c1cc(C(F)(F)F)cc2c(=O)cc(-c3ccccn3)oc12` (single isomer, unassigned; isomer 1) [Example 62, 6-Chloro-3-[1-[4-oxo-2-(2-pyridyl)-6-(trifluoromethyl)chromen-8-yl]ethylamino]pyridine-2-carboxylic acid, Isomer 1]: the 50% inhibitory concentration (IC50) in experiment [1] (Soy PI lipid substrate) is 5000 to 10000 nM; in experiment [2] (Soy PI lipid substrate), under 500 nM.

`Cc1cc(C(C)Nc2ccccc2C(=O)O)c2oc(-c3ccc(F)nc3)cc(=O)c2c1` (stereo not drawn) [Example 9, 2-[1-[2-(6-Fluoro-3-pyridyl)-6-methyl-4-oxo-chromen-8-yl]ethylamino]benzoic acid 2,2,2-trifluoroacetic acid]: the results for the IC50 in experiment [1] (Soy PI lipid substrate) and in experiment [2] (Soy PI lipid substrate) were 5000 to 10000 nM and under 500 nM, respectively.

For `Cc1cc(C(C)Nc2ccccc2C(=O)O)c2oc(-c3cccc(C(F)F)n3)c(C)c(=O)c2c1` (single isomer, unassigned) [Example 77, 2-[1-[2-[6-(Difluoromethyl)-2-pyridyl]-3,6-dimethyl-4-oxo-chromen-8-yl]ethylamino]benzoic acid, Isomer 1,2,2,2-trifluoroacetic acid], the IC50 in experiment [1] (Soy PI lipid substrate) is 500 to 1000 nM; in experiment [2] (Soy PI lipid substrate), under 500 nM.

With `Cc1cc(C(C)Nc2ccccc2C(=O)O)c2oc(-c3cnc(C4CC4)nc3)cc(=O)c2c1` (single isomer, unassigned; isomer 2) [Example 26, 2-[1-[2-(2-Cyclopropylpyrimidin-5-yl)-6-methyl-4-oxo-chromen-8-yl]ethylamino]benzoic acid, Isomer 2], the concentration for half-maximal inhibition (IC50) is 5000 to 10000 nM in experiment [1] (Soy PI lipid substrate) and under 500 nM in experiment [2] (Soy PI lipid substrate).

On to `Cc1cc(C(C)Nc2ccccc2C(=O)O)c2oc(-n3nccn3)cc(=O)c2c1` (single isomer, unassigned) [Example 57, 2-[1-[6-Methyl-4-oxo-2-(triazol-2-yl)chromen-8-yl]ethylamino]benzoic acid, Isomer 2,2,2,2-trifluoroacetic acid], for which the IC50 in experiment [1] (Soy PI lipid substrate) was over 10000 nM; in experiment [2] (Soy PI lipid substrate), under 500 nM.

Regarding `Cc1cc(C(C)Nc2ccccc2C(=O)O)c2oc(-c3ccccn3)cc(=O)c2c1` (single isomer, unassigned; isomer 1) [Example 17, 2-[1-[6-Methyl-4-oxo-2-(2-pyridyl)chromen-8-yl]ethylamino]benzoic acid, Isomer 1], the IC50 is 1000 to 5000 nM in experiment [1] (Soy PI lipid substrate) and under 500 nM in experiment [2] (Soy PI lipid substrate).

`COc1ccc(-c2cc(=O)c3cc(C)cc(C(C)Nc4ccccc4C(=O)O)c3o2)cn1` (stereo not drawn) [Example 12, 2-[1-[2-(6-Methoxy-3-pyridyl)-6-methyl-4-oxo-chromen-8-yl]ethylamino]benzoic acid 2,2,2-trifluoroacetic acid]: the half-inhibitory concentration (IC50) in experiment [1] (Soy PI lipid substrate) is 1000 to 5000 nM; in experiment [2] (Soy PI lipid substrate), under 500 nM.

Regarding `Cc1cc(C(C)Nc2ccccc2C(=O)O)c2oc(-c3ncccn3)c(C)c(=O)c2c1` (single isomer, unassigned; isomer 1) [Example 34, 2-[1-(3,6-Dimethyl-4-oxo-2-pyrimidin-2-yl-chromen-8-yl)ethylamino]benzoic acid, Isomer 1], the IC50 in experiment [1] (Soy PI lipid substrate) is 1000 to 5000 nM; in experiment [2] (Soy PI lipid substrate) it was under 500 nM.

For the molecule `Cc1cc(C(C)Nc2ccccc2C(=O)O)c2oc(-c3cccnc3)cc(=O)c2c1` (single isomer, unassigned; isomer 2) [Example 14, 2-[1-[6-Methyl-4-oxo-2-(3-pyridyl)chromen-8-yl]ethylamino]benzoic acid, Isomer 2], the half-maximal inhibitory concentration (IC50) in experiment [1] (Soy PI lipid substrate) is 1000 to 5000 nM; in experiment [2] (Soy PI lipid substrate), under 500 nM.

With `Cc1cc(C(C)Nc2ccccc2C(=O)O)c2oc(-c3cnn(-c4ccc5c(c4)OC(F)(F)O5)c3)cc(=O)c2c1` (single isomer, unassigned) [Example 91, 2-[1-[2-[1-(2,2-Difluoro-1,3-benzodioxol-5-yl)pyrazol-4-yl]-6-methyl-4-oxo-chromen-8-yl]ethylamino]benzoic acid, Isomer 2,2,2,2-trifluoroacetic acid], the half-inhibitory concentration (IC50) in experiment [1] (Soy PI lipid substrate) was over 10000 nM; in experiment [2] (Soy PI lipid substrate), 500 to 1000 nM.

`COC(=O)c1ccccc1NC(C)c1cc(C)cc2c(=O)cc(-c3c[nH]c(=O)cn3)oc12` (single isomer, unassigned; isomer 2) [Example 56, Methyl 2-[1-[6-methyl-4-oxo-2-(6-oxo-1H-pyrazin-3-yl)chromen-8-yl]ethylamino]benzoate, Isomer 2]: the results for the IC50 in experiment [1] (Soy PI lipid substrate) and in experiment [2] (Soy PI lipid substrate) were over 10000 nM and 1000 to 5000 nM, respectively.

As to `Cc1cc(C(C)Nc2ccc(Cl)c(F)c2C(=O)O)c2oc(-c3ccccn3)cc(=O)c2c1` (single isomer, unassigned; isomer 1) [Example 78, 3-Chloro-2-fluoro-6-[1-[6-methyl-4-oxo-2-(2-pyridyl)chromen-8-yl]ethylamino]benzoic acid, Isomer 1], the IC50 is 5000 to 10000 nM in experiment [1] (Soy PI lipid substrate) and under 500 nM in experiment [2] (Soy PI lipid substrate).

`CC(Nc1ccc(Cl)nc1C(=O)O)c1cc(C(F)(F)F)cc2c(=O)cc(-c3cnn(-c4ccc(C#N)cc4)c3)oc12` (single isomer, unassigned; isomer 1) [Example 96, 6-Chloro-3-[1-[2-[1-(4-cyanophenyl)pyrazol-4-yl]-4-oxo-6-(trifluoromethyl)chromen-8-yl]ethylamino]pyridine-2-carboxylic acid, Isomer 1]: the IC50 in experiment [1] (Soy PI lipid substrate) is 1000 to 5000 nM; in experiment [2] (Soy PI lipid substrate), under 500 nM.

With `Cc1cc(C(C)Nc2ccccc2C(=O)O)c2oc(-c3cnn(-c4ccc(Cl)cc4)c3)cc(=O)c2c1` (single isomer, unassigned) [Example 106, 2-[1-2-[1-(4-Chiorophenyl)pyrazol-4-yl]-6-methyl-4-oxo-chromen-8-yl]ethylamino]benzoic acid, Isomer 2,2,2,2-trifluoroacetic acid], the results for the IC50 in experiment [1] (Soy PI lipid substrate) and in experiment [2] (Soy PI lipid substrate) were 1000 to 5000 nM and under 500 nM, respectively.

For `Cc1cc(C(C)Nc2ccccc2C(=O)O)c2oc(-c3cnn(-c4ccccc4C#N)c3)cc(=O)c2c1` (single isomer, unassigned) [Example 107], the IC50 is over 10000 nM in experiment [1] (Soy PI lipid substrate) and under 500 nM in experiment [2] (Soy PI lipid substrate).

These data come from patent US20230014445A1, “ALLOSTERIC CHROMENONE INHIBITORS OF PHOSPHOINOSITIDE 3-KINASE (PI3K) FOR THE TREATMENT OF DISEASE” (Petra Pharma Corporation, priority 2021, published 2023).
